Test results: patent US10894777B2, “TG2 inhibitor piperazine compounds and uses thereof” (UNIVERSITY OF OTTAWA, priority 2016, dated 2021)
Read-outs that look alike come from different tables or passages of the source.

Legend:
TG2 = target: T1, TG2 (Homo sapiens, UniProt P21980); assay: Kinetic inactivation of purified recombinant human TG2, continuous spectrophotometric activity assay (Examples 3, 10); assay type: biochemical; design: made in house
T1 sequence (P21980 1-687): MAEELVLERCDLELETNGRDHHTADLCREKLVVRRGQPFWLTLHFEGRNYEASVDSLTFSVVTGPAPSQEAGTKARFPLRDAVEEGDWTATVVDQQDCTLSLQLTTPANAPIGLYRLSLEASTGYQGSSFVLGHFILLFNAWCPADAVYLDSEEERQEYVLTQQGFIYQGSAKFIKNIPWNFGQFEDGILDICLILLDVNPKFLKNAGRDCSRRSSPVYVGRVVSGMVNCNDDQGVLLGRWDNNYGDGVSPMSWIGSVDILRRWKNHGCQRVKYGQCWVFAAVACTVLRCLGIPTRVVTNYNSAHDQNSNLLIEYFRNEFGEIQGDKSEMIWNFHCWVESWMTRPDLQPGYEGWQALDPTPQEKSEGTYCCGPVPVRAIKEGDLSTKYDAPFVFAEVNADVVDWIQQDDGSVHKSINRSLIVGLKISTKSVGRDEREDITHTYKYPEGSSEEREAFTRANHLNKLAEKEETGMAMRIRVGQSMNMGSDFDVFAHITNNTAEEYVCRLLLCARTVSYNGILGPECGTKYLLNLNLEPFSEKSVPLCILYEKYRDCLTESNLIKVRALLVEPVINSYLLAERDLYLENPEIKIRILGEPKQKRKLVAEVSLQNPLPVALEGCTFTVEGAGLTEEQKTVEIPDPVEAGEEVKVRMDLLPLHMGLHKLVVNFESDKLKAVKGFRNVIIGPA
Experimental: Kinetic studies were carried out in vitro, using purified recombinant human TG2 (Roy, I. et al., Protein Expr. Purif. 87: 41-46, 2013) and a direct, continuous spectrophotometric activity assay (Leblanc, A. et al., Biochemistry 40: 8335-8342, 2001).
Kinetics. Kinetic runs were performed at 25° C. in 100 mM MOPS buffer (pH 7.0) containing 3 mM CaCl2 and 50 μM EDTA. […] Stock solutions of the substrate and inhibitors were prepared in DMF such that the final concentration of this co-solvent was constant at 10% v/v. Reactions were initiated with the addition of enzyme with an activity of approximately 0.05 U/mL. Kinetic evaluation was carried out by the method of Stone and Hofsteenge (Stone, S. R. and Hofsteenge, J., Biochem. J. 230: 497-502, 1985). […] Observed first-order rate constants of inactivation were determined from non-linear regression, to a mono-exponential model. These rate constants were in turn fit to equation 1 by non-linear regression, providing the kinetic parameters
Kinetic parameters were determined as described above.

hTG1 = hTG1 (Homo sapiens, UniProt P22735); assay: Colorimetric transamidase activity assay (AL5 substrate), hTG1; assay type: biochemical; settings: Table 9; Kitz and Wilson conditions
Experimental: Selectivity of certain irreversible inhibitors over other members of the transglutaminase family was assessed. […] Inhibitors were tested using a continuous colorimetric assay (Leblanc, A. et al., Biochemistry (2001), 40 (28): 8335-8342) for hTG1 and hTG6 and a commercially available continuous fluorescent assay that utilizes a peptidic FRET quenched substrate (Oertel, K. et al., Anal. Biochem. (2007), 367 (2): 152-158; Király, R. et al., Amino Acids (2016), 48 (1): 31-40) for the other transglutaminases, FXIIIa and hTG3. The rate constant of enzyme inactivation (kobs) for a specific concentration of inhibitor was obtained using Kitz and Wilson conditions (Kitz, R. et al., J. Biol. Chem. (1962), 237: 3245-49). Inhibitor concentrations were adjusted to account for competition with substrates in each enzymatic reaction.
In Vitro Assays. Colorimetric transamidase activity assay.

TG2 level = TG2 level immunoblot, SCC-13 spheroids; assay type: cell-based, human; settings: 20 μM, 48 hours
Experimental: In (A), SCC-13 cells (40,000) were plated in non-adherent six well dishes, grown for 8 days in spheroid medium, and then NC9 was added and spheroid number was monitored at 0-48 hours. In (B), spheroids were grown for 10 days, treated for 48 hours with indicated level of NC9 and photographed. In (C), SCC-13 cells were plated at 40,000 cells per well in non-adherent six well dishes and after 10 days the spheroids were treated with 0-20 μM NC9 for 0-72 hours before trypan blue exclusion viability assay. In (D), SCC-13 spheroids were grown for 10 days, treated with 0 or 20 μM NC9 for 48 hours, and TG2 level was assayed by immunoblot. In (E), SCC-13 cells were grown as monolayers in spheroid medium and TG2 activity was monitored by FC incorporation assay as outlined in the Materials and Methods for Example 7. In (F), SCC-13 cell 8 day spheroids were treated with […] NC9 and cells were harvested at the indicated times for immunoblot detection of procaspase 3 and cleaved caspase 3. In all panels, the values are mean±SEM, n=3, p<0.05.

SCC-13 cells = assay: EMT marker immunoblot, SCC-13 cells; assay type: cell-based, human; settings: 20 μM, 48 h
Experimental: In (A), SCC-13 cells (500,000) were plated in monolayer culture in spheroid medium in 100 mm dishes. Fresh spheroid medium containing 0 or 20 μM NC9 was added at time zero and again at 24 h. After 48 h lysates were collected for electrophoresis and immunoblot. In (B), SCC-13 cells were pretreated with 0 or 20 μM NC9 for 2 h and then harvested and plated (25,000 cells) in the upper chamber in 1 mL of medium, above a matrigel-coated membrane, in a Millicell chamber. After 30 h. the inside of membrane was harvested and the nuclei of migrated cells on the bottom of the membrane were counted using an inverted fluorescent microscope. The values are mean±SEM, n=3 (p, 0.05). In (C), SCC-13 (2 million) cells were plated in spheroid medium in 100 mm dishes and grown as monolayer cultures. Confluent monolayers were then scratched with a 10-μL pipette tip and wound width was monitored for 0-18 h.
Immunoblot. […] Blots were rinsed and then incubated with secondary antibody (diluted 1:5000) for 2 h. Secondary antibody binding was visualized using ECL Prime chemiluminescence detection technology (Amersham).

TG2 mRNA = TG2 mRNA expression by qRT-PCR in GBM cell lines; assay type: cell-based, human; settings: 10 μM, 24 or 48 h
Experimental: Q-RTPCR. After RNA isolation, cDNA was synthesized using the verso cDNA kit (ThermoFisher) with oligo-dT primers following the manufacturer's instructions. Quantitative real time PCR was carried out using SYBR green mix (Agilent Technologies) along with primers against total human TG2 or GAPDH (for normalization) as previously described (Cao, L. et al., Oncogene 31(20):2521-34, 2012).

hTG1, sequence (P22735 whole entry): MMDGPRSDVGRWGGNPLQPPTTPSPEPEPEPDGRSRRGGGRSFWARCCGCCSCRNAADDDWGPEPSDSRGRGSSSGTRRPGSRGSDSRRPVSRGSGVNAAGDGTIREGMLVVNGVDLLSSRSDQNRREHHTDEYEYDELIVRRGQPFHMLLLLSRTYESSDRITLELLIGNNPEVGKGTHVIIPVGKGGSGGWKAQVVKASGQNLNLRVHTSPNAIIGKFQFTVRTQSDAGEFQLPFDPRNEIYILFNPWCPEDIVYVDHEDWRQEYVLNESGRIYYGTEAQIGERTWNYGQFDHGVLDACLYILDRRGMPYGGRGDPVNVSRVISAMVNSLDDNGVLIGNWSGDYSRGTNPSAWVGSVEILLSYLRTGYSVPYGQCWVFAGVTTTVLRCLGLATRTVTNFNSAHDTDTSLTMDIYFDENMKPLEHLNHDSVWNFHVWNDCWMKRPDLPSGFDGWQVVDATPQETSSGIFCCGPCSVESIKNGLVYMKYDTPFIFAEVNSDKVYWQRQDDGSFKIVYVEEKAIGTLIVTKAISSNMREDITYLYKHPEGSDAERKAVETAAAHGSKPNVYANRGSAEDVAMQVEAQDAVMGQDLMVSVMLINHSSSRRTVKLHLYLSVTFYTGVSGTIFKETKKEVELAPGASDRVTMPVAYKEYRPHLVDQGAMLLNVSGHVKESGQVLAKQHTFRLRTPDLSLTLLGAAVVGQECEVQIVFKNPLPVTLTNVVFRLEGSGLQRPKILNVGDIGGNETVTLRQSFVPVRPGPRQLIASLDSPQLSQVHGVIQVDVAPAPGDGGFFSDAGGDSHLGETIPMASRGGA

Compound | kinact (TG2; Table 4) | kinact/KI (TG2; read-out: kinact/KI (?M^−1min^−1), Table 1) | kinact/KI (TG2; read-out: kinact/Ki (μM^−1 min^−1), Table 4, for ^a no saturation observed, efficiency obtained from initial slope) | kobs (10^−3 min^−1), TG1 (hTG1) | TG2 level (TG2 level) | E-cadherin level (SCC-13 cells) | EMT transcription factor and EMT marker levels (SCC-13 cells) | TG2 mRNA levels (TG2 mRNA)
C=CC(=O)NCCCC[C@H](NC(=O)OCc1ccccc1)C(=O)N1CCN(C(=O)c2cc3ccc(O)cc3oc2=O)CC1 [VA5, (S)-Benzyl(6-acrylamido-1-(4-(7-hydroxy-2-oxo-2H-chromene-3-carbonyl)piperazin-1-yl)-1-oxohexan-2-yl)carbamate] | 0.0116 s⁻¹ | 130000 M⁻¹ min⁻¹ | 165000 M⁻¹ min⁻¹ |  |  |  |  | 
C=CC(=O)NCCCC[C@H](NC(=O)OCc1ccccc1)C(=O)NCCOCCOCCNS(=O)(=O)c1cccc2c(N(C)C)cccc12 [NC9] |  |  |  | 78.9 ± 5.9 10^−3 min^−1 | not associated with reduced TG2 level | elevated | reduced EMT transcription factor (Twist, Snail, Slug) and EMT marker (vimentin, fibronectin, N-cadherin, HIF-1α) levels | no significant effects
